Reference: article PMC3375280 (PLoS ONE, 2012)
Residue numbers refer to the chain shown, from its start.

Tests used:
[1] = target: T1, AT1 C76A/Y113C/C289A mutant receptor (Rattus norvegicus, UniProt P25095, C289A/C76A/Y113C); test: competition binding, C76A/Y113C/C289A mutant; conditions: for Kd ratio relative to WT (in parentheses): C76A/Y113C/C289A / WT; for Kd: C76A/Y113C/C289A, COS1 membranes, read-out: Binding affinity (Kd)
T1 construct: expressed in transfected cells; host or cells: COS1 cells (membranes)
T1 sequence (P25095 1-359 C76A/Y113C/C289A): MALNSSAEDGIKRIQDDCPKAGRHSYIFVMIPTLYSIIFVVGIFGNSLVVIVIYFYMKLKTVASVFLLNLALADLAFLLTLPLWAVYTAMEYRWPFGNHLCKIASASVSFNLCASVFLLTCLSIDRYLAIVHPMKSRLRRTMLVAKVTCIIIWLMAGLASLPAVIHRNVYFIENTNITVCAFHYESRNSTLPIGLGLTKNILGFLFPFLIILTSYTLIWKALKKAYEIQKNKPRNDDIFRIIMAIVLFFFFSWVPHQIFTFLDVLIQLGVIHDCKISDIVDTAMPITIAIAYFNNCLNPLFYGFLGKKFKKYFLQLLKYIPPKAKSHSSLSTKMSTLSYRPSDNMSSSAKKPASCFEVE
Description: (§1) The Kd and Bmax values of receptor binding were determined by ^125I-[Sar^1, Ile^8] […] Membranes expressing the WT or mutant AT1 receptors were incubated with 100 pM ^125I-[Sar^1, Ile^8] […] The binding reaction was terminated by filtering the incubation mixture through Whatman GF/C glass filters, and the residues were extensively washed further with binding buffer. The bound ligand fraction was determined from the counts per minute (cpm) remaining on the membrane. Binding kinetics values were determined as previously described.

[2] = target: T2, AT1 S115A mutant receptor (Rattus norvegicus, UniProt P25095, S115A); test: competition binding, S115A mutant; conditions: for Kd ratio relative to WT (in parentheses): S115A / WT; for Kd: S115A, COS1 membranes, read-out: Binding affinity (Kd)
T2 construct: expressed in transfected cells; host or cells: COS1
T2 sequence (P25095 1-359 S115A): T1 sequence (P25095 1-359 C76A/Y113C/C289A) with A76C, C113Y, S115A, A289C
Description: as §1

[3] = target: T3, AT1 C76A/C289A mutant receptor (Rattus norvegicus, UniProt P25095, C289A/C76A); test: competition binding, C76A/C289A mutant; conditions: for Kd ratio relative to WT (in parentheses): C76A/C289A / WT; for Kd: C76A/C289A, COS1 membranes, read-out: Binding affinity (Kd)
T3 construct: expressed in transfected cells; host or cells: COS1
T3 sequence (P25095 1-359 C76A/C289A): T1 sequence (P25095 1-359 C76A/Y113C/C289A) with C113Y
Description: as §1

[4] = target: T4, AT1 C76A/A114C/C289A mutant receptor (Rattus norvegicus, UniProt P25095, A114C/C289A/C76A); test: competition binding, C76A/A114C/C289A mutant; conditions: for Kd ratio relative to WT (in parentheses): C76A/A114C/C289A / WT; for Kd: C76A/A114C/C289A, COS1 membranes, read-out: Binding affinity (Kd)
T4 construct: expressed in transfected cells; host or cells: COS1 cells (membranes)
T4 sequence (P25095 1-359 C76A/A114C/C289A): T1 sequence (P25095 1-359 C76A/Y113C/C289A) with C113Y, A114C
Description: as §1

[5] = target: T5, AT1 F117A mutant receptor (Rattus norvegicus, UniProt P25095, F117A); test: competition binding, F117A mutant; conditions: for Kd ratio relative to WT (in parentheses): F117A / WT; for Kd: F117A, COS1 membranes, read-out: Binding affinity (Kd)
T5 construct: expressed in transfected cells; host or cells: COS1
T5 sequence (P25095 1-359 F117A): T1 sequence (P25095 1-359 C76A/Y113C/C289A) with A76C, C113Y, F117A, A289C
Description: as §1

[6] = target: T6, wild-type (WT) AT1 receptor (Rattus norvegicus, UniProt P25095); test: inositol phosphate (IP) production in COS1 cells expressing WT AT1 receptor; conditions: 1 µM compound, vs basal IP production
T6 sequence (P25095 1-359): T1 sequence (P25095 1-359 C76A/Y113C/C289A) with A76C, C113Y, A289C
Description: The test compounds were added 1 h before the measurement of IP.
The WT and mutant AT1 receptors were transiently transfected into COS1 cells using Lipofectamine 2000 liposomal reagent (Roche Applied Science) according to the manufacturer’s instructions.
Cells expressing the WT and mutant AT1 receptors were incubated for 30 minutes at 22°C with or without the indicated concentrations of ARBs. The cells were washed-out once with the use of excess cold HBSS, and used in an IP production study. Total soluble IP was measured by the perchloric acid extraction method, as described previously [16].

CCCc1nc(C(C)(C)O)c(C(=O)O)n1Cc1ccc(-c2ccccc2-c2nnn[nH]2)cc1 [Olmesartan, olmesartan, reference compound]
Kd ratio relative to WT (in parentheses) [1]: 248 fold
Kd [1]: 570 ± 197 nM
Kd ratio relative to WT (in parentheses) [2]: 1.3 fold
Kd [2]: 3.1 ± 1.7 nM
Kd ratio relative to WT (in parentheses) [3]: 2.5 fold
Kd [3]: 5.7 ± 1.6 nM
Kd ratio relative to WT (in parentheses) [4]: 2.4 fold
Kd [4]: 5.5 ± 2.6 nM
Kd ratio relative to WT (in parentheses) [5]: 1.1 fold
Kd [5]: 2.5 ± 1.4 nM
Pharmacological behaviour toward IP production (agonism / neutral antagonism / inverse agonism) [6]: inverse agonist

CCCc1nc(C(C)(C)O)c(C(N)=O)n1Cc1ccc(-c2ccccc2-c2nnn[nH]2)cc1 [R239470]
Kd ratio relative to WT (in parentheses) [1]: 340 fold
Kd [1]: 272 ± 129 nM
Kd ratio relative to WT (in parentheses) [2]: 1.6 fold
Kd [2]: 1.3 ± 0.4 nM
Kd ratio relative to WT (in parentheses) [3]: 3.0 fold
Kd [3]: 2.4 ± 0.5 nM
Kd ratio relative to WT (in parentheses) [4]: 2.0 fold
Kd [4]: 1.6 ± 0.7 nM
Kd ratio relative to WT (in parentheses) [5]: 1.9 fold
Kd [5]: 1.5 ± 0.04 nM
Pharmacological behaviour toward IP production (agonism / neutral antagonism / inverse agonism) [6]: neutral antagonist

CCCc1nc(C(C)(C)O)c(C(N)=O)n1Cc1ccc(-c2cc(Cc3ccc(O)cc3)ccc2-c2nnn[nH]2)cc1 [R794847]
Kd ratio relative to WT (in parentheses) [1]: 134 fold
Kd [1]: 6420 ± 2570 nM
Kd ratio relative to WT (in parentheses) [2]: 3.1 fold
Kd [2]: 150 ± 41 nM
Kd ratio relative to WT (in parentheses) [3]: 1.5 fold
Kd [3]: 73 ± 20 nM
Kd ratio relative to WT (in parentheses) [4]: 2.7 fold
Kd [4]: 128 ± 15 nM
Kd ratio relative to WT (in parentheses) [5]: 1.1 fold
Kd [5]: 54 ± 19 nM
Pharmacological behaviour toward IP production (agonism / neutral antagonism / inverse agonism) [6]: agonism
